# In PMC2228077, “The bioavailability of oral GI147211 (GG211), a new topoisomerase I inhibitor” (British Journal of Cancer, 1997):
# Structures can show the parent of a compound that is named as a salt.
# Assays:
# [1] = Toxicity assessment (CTC criteria) in patients, oral day 1 + i.v. days 2-5 every 3 weeks; type: in vivo, human; conditions: for Abdominal discomfort, drug-related toxicity per course / Diarrhoea, drug-related toxicity per course / Nausea, drug-related toxicity per course / Stomatitis, drug-related toxicity per course: CTC grade 1; for Abdominal discomfort, drug-related toxicity per course / Diarrhoea, drug-related toxicity per course / Nausea, drug-related toxicity per course / Stomatitis, drug-related toxicity per course / Fatigue, drug-related toxicity per course / Vomiting, drug-related toxicity per course: Table 2
# Source text: British Journal of Cancer (1997) 76(7), 946-951 ? 1997 Cancer Research Campaign The bloavailability of oral Gil 47211 (GG21 1), a new topoisomerase I inhibitor CJH Gerrits', JHM Schellens', GJ Creemers', P Wissel2, ASTh Planting', JF Pritchard2, S DePee2, M de Boer-Dennert', M Harteveld' and J Verweij' 'Department of Medical Oncology, Rotterdam Cancer Institute (Daniel den Hoed Kliniek) and University Hospital, The Netherlands; 2Glaxo Wellcome, Department of Pharmacokinetics, NC, USA Summary Topoisomerase I inhibitors are new compounds of interest for cancer chemotherapy. We performed a study with Gl147211, a new semisynthetic camptothecin analogue, to determine the absolute bioavailability of the drug given orally. […] Gi147211 was given orally on day 1 and as a 30-min infusion daily on days 2-5. The treatment course was repeated every 3 weeks. In subsequent patient cohorts, the dose of the oral formulation was escalated from 1.5 mg m-2 to 6.0 mg m-2; the dose for i.v. administration was fixed at 1.2 mg m-2. Plasma pharmacokinetics was performed on day 1 and 2 of the first course and on day 1 of the second course using a validated high-performance liquid chromatographic assay. […] Keywords: G1147211 (GG211); bioavailability; topoisomerase I inhibitor; phase I study G1147211 [7-(methylpiperazinomethylene)-10,11-ethylenedioxy- 20(S)-camptothecin dihydrochloride] is a water-soluble semisyn- thetic analogue of camptothecin (CPT). […] Its further development was stopped because of unpredictable and severe myelosuppression, gastro- intestinal toxicity and haemorrhagic cystitis (Gottlieb et al, 1970; Creaven et al, 1972; Muggia et al, 1972). Interest in CPT was renewed in the 1980s, because topoiso- merase I was identified as the single cellular target of CPT (Hsiang et al, 1988 1989), and an overexpression of topoisomerase I was found in various tumour cell lines but not in normal tissues (Giovanella et al, 1989; Hirabayashi et al, 1992). Topoisomerase I is a nuclear enzyme that resolves topological problems of the torsionally strained (supercoiled) DNA by forming a covalent adduct between topoisomerase I and the DNA, termed the cleav- able complex. This catalytic intermediate creates single-strand DNA breaks, allowing the DNA molecule to rotate around the intact DNA strand at the cleavage site, leading to a relaxation of Received 29 November 1996 Revised 27 March 1997 Accepted 1 April 1997 Correspondence to: CJH Gerrits, Department of Medical Oncology, Rotterdam Cancer Institute, (Daniel den Hoed Kliniek) and University Hospital, Groene Hilledijk 301, 3075 EA Rotterdam, The Netherlands the DNA molecule, and in this way replication, transcription and other DNA functions can proceed. These enzyme-bridged breaks are then resealed by topoisomerase I (Champoux, 1976; Muller, 1985; Muller et al, 1985; Camilloni et al, 1989). […] It has been documented that camptothecin (CPT) interferes with the breakage-reunion process of topoiso- merase I by stabilizing the enzyme-DNA cleavable complexes (Liu et al, 1989).
# [2] = dog, in vivo; cited from earlier work
# [3] = oral 6.0 mg m-2 level, discussion
compound,measurement,setting,value
"CC[C@@]1(O)C(=O)OCc2c1cc1n(c2=O)Cc2c-1nc1cc3c(cc1c2CN1CCN(C)CC1)OCCO3 [GI147211, 7-(methylpiperazinomethylene)-10,11-ethylenedioxy-20(S)-camptothecin dihydrochloride]",ANC nadir,"[1]; 6.0 mg m-2 level, the one case with CTC grade IV",9e+07 L⁻¹
same,courses in which erythrocyte transfusions were given,[1]; CTC grade I-II anaemia occurred regularly,24 out of 47
same,"platelet count, range",[1]; CTC grade III-IV thrombocytopenia,4-40 x 109 l-1
same,courses with fatigue CTC grade II,[1]; Table 2 footnote c,Four
same,"Abdominal discomfort, drug-related toxicity per course","[1]; Total, n = 47 courses",6 courses
same,"Diarrhoea, drug-related toxicity per course","[1]; Total, n = 47 courses",1 courses
same,"Nausea, drug-related toxicity per course","[1]; Total, n = 47 courses",24 courses
same,"Stomatitis, drug-related toxicity per course","[1]; Total, n = 47 courses",2 courses
same,"Fatigue, drug-related toxicity per course","[1]; Total, n = 47 courses",16 courses
same,myelotoxicity,[1]; first two dose levels (1.5 and 3.0 mg m-2 oral),not observed
same,"duration of severe granulocytopenia, range","[1]; human, in vivo",7 to 19 days
same,"duration of severe thrombocytopenia, range","[1]; human, in vivo",3 to 16 days
same,median duration of severe granulocytopenia (first occurrence to recovery to CTC grade II),"[1]; human, in vivo",7 days
same,median duration of severe thrombocytopenia (first occurrence to recovery to CTC grade II),"[1]; human, in vivo",8 days
same,nausea and vomiting after oral administration compared with intravenous dosing,"[1]; human, in vivo",not different
same,neutropenic sepsis (main serious adverse event),"[1]; human, in vivo",one
same,patients complaining of mild fatigue,"[1]; human, in vivo",34%
same,patients with treatment delay because of slow recovery of mild leucopenia,"[1]; human, in vivo",six
same,renal and liver toxicity,"[1]; human, in vivo",not reported
same,diarrhoea after a single oral administration,"[1]; human, in vivo, po",did not result in diar- rhoea
same,tolerability of oral administration,"[1]; human, in vivo, po",well tolerated
same,courses with mild leucopenia CTC grade I-II,[1]; of 47 courses,17 courses
same,"mild leucopenia CTC grade I-II, share of courses",[1]; of 47 courses,36.2%
same,"nausea CTC grade I, share of courses",[1]; of 47 courses,51.6%
same,"vomiting CTC grade I, number of courses",[1]; of 47 courses,9 courses
same,"vomiting CTC grade I, share of courses",[1]; of 47 courses,19.1%
same,reversible CTC grade I peripheral neuropathy,[1]; one patient,2.1%
same,day of the platelet nadir,[1]; [3],8 days
same,"day of the platelet nadir, range",[1]; [3],3 to 16 days
same,onset of neutropenia CTC grade III-IV,"[1]; oral 6.0 mg m-2 day 1 + i.v. 1.2 mg m-2 days 2-5, discussion",7 to 19 days
same,"Abdominal discomfort, drug-related toxicity per course",[1]; oral dose level 1.5 mg m-2,0 courses
same,"Diarrhoea, drug-related toxicity per course",[1]; oral dose level 1.5 mg m-2,0 courses
same,"Nausea, drug-related toxicity per course",[1]; oral dose level 1.5 mg m-2,4 courses
same,"Stomatitis, drug-related toxicity per course",[1]; oral dose level 1.5 mg m-2,0 courses
same,"Fatigue, drug-related toxicity per course",[1]; oral dose level 1.5 mg m-2,4 courses
same,"Vomiting, drug-related toxicity per course",[1]; oral dose level 1.5 mg m-2,2 courses
same,"Abdominal discomfort, drug-related toxicity per course",[1]; oral dose level 3.0 mg m-2,3 courses
same,"Diarrhoea, drug-related toxicity per course",[1]; oral dose level 3.0 mg m-2,0 courses
same,"Nausea, drug-related toxicity per course",[1]; oral dose level 3.0 mg m-2,4 courses
same,"Stomatitis, drug-related toxicity per course",[1]; oral dose level 3.0 mg m-2,1 courses
same,"Fatigue, drug-related toxicity per course",[1]; oral dose level 3.0 mg m-2,2 courses
same,"Vomiting, drug-related toxicity per course",[1]; oral dose level 3.0 mg m-2,2 courses
same,courses postponed for 1 week because of mild leucopenia with slow recovery,[1]; oral dose level 6.0 mg m-2,10 out of 30
same,courses with CTC grade III-IV granulocytopenia,[1]; oral dose level 6.0 mg m-2,5 out of 30
same,courses with CTC grade III-IV thrombocytopenia,[1]; oral dose level 6.0 mg m-2,4 out of 30
same,"Abdominal discomfort, drug-related toxicity per course",[1]; oral dose level 6.0 mg m-2,3 courses
same,"Diarrhoea, drug-related toxicity per course",[1]; oral dose level 6.0 mg m-2,1 courses
same,"Nausea, drug-related toxicity per course",[1]; oral dose level 6.0 mg m-2,16 courses
same,"Stomatitis, drug-related toxicity per course",[1]; oral dose level 6.0 mg m-2,1 courses
same,"Fatigue, drug-related toxicity per course",[1]; oral dose level 6.0 mg m-2,10 courses
same,"Vomiting, drug-related toxicity per course",[1]; oral dose level 6.0 mg m-2,7 courses
same,"abdominal discomfort, mostly cramping, share of courses",[1]; six courses,13%
same,nadir for neutropenia,[1]; summary,8 days
same,nadir for thrombocytopenia,[1]; summary,15 days
same,"alopecia grade I, share of patients",[1]; three patients,17%
same,median platelet count,[1]; three patients with CTC grade III-IV thrombocytopenia,2.5e+10 L⁻¹
same,"mild headache, share of courses","[1]; two courses, not dose dependent",4.2%
same,"vomiting CTC grade II, share of cycles",[1]; two cycles,4.2%
same,absolute bioavailability,[2],16%
